Source: publication PMC12163684, “Gunacins: Novel Benzo[g]chromene Derivatives from the Fungus Exobasidium sp. and Their Potent Anti-Leishmania and Trypanosoma Activities” (ACS Omega, 2025)
Read-outs that look alike come from different tables or passages of the source.

System: RTL-W1 cell line
Assay: Cell viability assay with fluorescent indicators AB, CFDA-AM and NR
Format: cell-based, rainbow trout (Oncorhynchus mykiss)
Settings: Oncorhynchus mykiss, 24 h exposure, n.d. = activity not detected at highest tested concentration 150 μM
Experimental: Cell viability assay was determined on cell line RTL-W1 (obtained from Eawag, Switzerland; liver tissue) of rainbow trout (Oncorhynchus mykiss) according to the modified procedure of Dayeh (2005). A combination of three fluorescent indicators, alamarBlue (AB), 5-carboxyfluorescein diacetate acetoxymethyl ester (CFDA-AM), and NR was used to assess different mechanisms of toxic action, evaluate the general cellular response and increase the sensitivity of the cytotoxicity tests. […] After 24 h of incubation in microculturing plates, the cells were exposed to concentration series of isolated compounds in 0.5% DMSO for another 24 h. After the exposition, the solutions were removed from individual wells followed by the washing step and the addition of 100 μL of a dye solution containing 0.625% AB and 0.4 μM CFDA-AM in […]. The cells were incubated at room temperature for 30 min, and the fluorescence was measured at excitation/emission wavelengths of 535/590 nm for the AB assay and 485/535 nm for the CFDA-AM assay. Afterward, the dye solution was removed, the cells were rinsed, and 100 μL of the NR solution was added (0.03 mg/mL in […]). After 60 min of incubation, the cells were rinsed twice, and NR was extracted from the cells using 150 μL of a solution consisting of 1% (v/v) glacial acetic acid in 50% (v/v) ethanol. The content of each well was repeatedly homogenized using a pipet, and the fluorescence was measured at excitation/emission wavelengths of 535/630 nm.

[1] = Alamar Blue, cellular metabolic activity, read-out: EC50 ± SEM RTL-W1 (AB)
[2] = CFDA-AM, cell membrane integrity, read-out: EC50 ± SEM RTL-W1 (CFDA)
[3] = Neutral Red, lysosomal membrane integrity, read-out: EC50 ± SEM RTL-W1 (NR)

Row | Structure (SMILES) | EC50 [1] [nM] | EC50 [2] [nM] | EC50 [3] [nM]
1 | COc1cc(O)c2c(c1)C(=O)C1=C(C2=O)[C@@H](OC(C)=O)[C@@H](O)[C@@H](C)O1 [Compound 1, (2R,3S,4R)-3,6-dihydroxy-8-methoxy-2-methyl-5,10-dioxo-3,4,5,10-tetrahydro-2H-benzo[g]chromen-4-yl acetate] | 500 | 800 ± 100 | 300
2 | COc1cc(O)c2c(c1)C(=O)C1=C(C2=O)[C@@H](O)[C@@H](OC(C)=O)[C@@H](C)O1 [Compound 5, (2R,3R,4R)-4,6-dihydroxy-8-methoxy-2-methyl-5,10-dioxo-3,4,5,10-tetrahydro-2H-benzo[g]chromen-3-yl acetate] | 2500 ± 300 | 2100 ± 100 | 900 ± 100
